From US10519177B2, “Heterocyclic compounds and uses thereof” (Plexxikon Inc., priority 2013, dated 2019)
Where two headings read alike, the source gives them in different places.

Key:
bromodomain = experiment: at least one of the bromodomain cell assays of Example 57; type: cell-based; conditions: read-out: IC50 in at least one of the bromodomain cell assays
MV-4-11 cells = experiment: Oncology cell growth assay MV-4-11 (CellTiter Glo); type: cell-based
From the text: Published bromodomain inhibitors JQ1 and iBET 151 have shown activity in variety of cancer cells such leukemia and lymphoma, multiple myeloma cells, NUT midline carcinoma and glioblastoma cells (Dawson M A et al. 2011; Delmore J E 2011; Chen Z et al. 2013; Filippakopoulos P et al. 2010; Mertz J A et al. 2011; Ott C J et al. 2012). In this study, we test compounds in different cancer cell lines. MV-4-11 and MOLM-13 are AML cell lines harboring a MLL-AF4 and MLL-AF9 translocation, respectively. MM.1S is a multiple myeloma cell line. SK-N-AS, IMR-32 and SK-N-BE(2) are neuroblastoma cell lines. IMR-32 and SK-N-BE(2) cell lines harbor MYCN amplifications.
MV-4-11, MM.1S, IMR-32, SK-N-AS and SK-N-BE(2) were obtained from ATCC (IL, USA) and MOLM-13 were purchased from DSMZ (Braunschweig, German). Cells are cultured as recommended by their sources. For growth inhibition studies 3000 cells are seeded in wells of a 96-well plate in 75 μL of culture media. After several hours, growth media containing compounds of formula (I) are added to the wells. Compound at a maximal concentration of 5 mM was serially diluted 1:3 for a total of 8 point titration with DMSO as a control. A 1 μL aliquot of each dilution point is added to 249 μL growth media and 75 μL is added to each well containing cells, providing 10 μM compound at the maximum concentration point. The final concentration of DMSO in all wells is 0.2%. Cells are incubated for 72 hours, and 25 μL of CellTiter Glo Reagent (Promega GA, USA) is added to each well. Plates are shaken for approximately 10 minutes and chemiluminescent signal is read on Tecan microplate reader. The measured luminescence correlates directly with cell number.
All data is normalized to the mean of eight DMSO high control wells on each plate. A four parameter curve fit of the following formula was then applied: Y=a+(b−a)/(1+(x/c)^d) Where ‘a’ is the minimum, ‘b’ is the maximum, ‘c’ is the pIC50 and ‘d’ is the Hill slope. […] Myc Reporter Assay

[1] = Homo sapiens, MV4-11, 72 h, read-out: Cell activity (IC50 μM) MV-4-11 3d-Growth
[2] = at least one of the bromodomain cell assays described in Example 57
[3] = Homo sapiens, MV4-11, 72 h; MV-4-11, 3d growth; read-out: Cell activity (IC50 μM) MV-4-11 3d-Growth
[4] = Homo sapiens, MV4-11, 72 h; read-out: Cell activity (IC50 μM) MV-4-11 3d-Growth

Row | SMILES | IC50 (bromodomain; [2]) | further results
1 | Cc1noc(C)c1-c1cnc2c(-c3ccc(C(=O)O)cc3)cn([C@@H](C)c3ccccn3)c2c1 [P-0511, 4-[6-(3,5-dimethylisoxazol-4-yl)-1-[(1S)-1-(2-pyridyl)ethyl]pyrrolo[3,2-b]pyridin-3-yl]benzoic acid] | – | IC50 (bromodomain): < 10 µM; IC50 (MV-4-11 cells; [1]): < 1 µM
2 | [2H]c1c([2H])c([2H])c(C([2H])(n2cc(-c3ccc(C(=O)OC)cc3)c3ncc(-c4c(C)noc4C)cc32)C([2H])([2H])[2H])c([2H])c1[2H] (stereo not shown) [P-0605, methyl 4-[6-(3,5-dimethylisoxazol-4-yl)-1-[1,2,2,2-tetradideuterio-1-(2,3,4,5,6-pentadeuteriophenyl)ethyl]pyrrolo[3,2-b]pyridin-3-yl]benzoate] | < 10 µM | IC50 (MV-4-11 cells; [3]): < 1 µM
3 | CNC(=O)c1ccc(-c2cnc3ccn(CC4CCC(F)(F)CC4)c3c2)cn1 [P-0359, 5-[1-[(4,4-difluorocyclohexyl)methyl]pyrrolo[3,2-b]pyridin-6-yl]-N-methyl-pyridine-2-carboxamide] | < 10 µM | IC50 (MV-4-11 cells; [4]): 10 to 200 µM
4 | Cc1noc(C)c1-c1cnc2c(-c3ccc(C(=O)O)cc3)cn(C(C)c3ccccn3)c2c1 (stereo not shown) [P-0369, 4-[6-(3,5-dimethylisoxazol-4-yl)-1-[1-(2-pyridyl)ethyl]pyrrolo[3,2-b]pyridin-3-yl]benzoic acid] | – | IC50 (bromodomain): < 10 µM; IC50 (MV-4-11 cells; [1]): < 1 µM
5 | Cc1noc(C)c1-c1cnc2c(-c3cnn(C)c3)cn(C(=O)C3CCC(F)(F)CC3)c2c1 [P-0208] | < 10 µM | IC50 (MV-4-11 cells; MV-4-11 3d-Growth; read-out: Cell activity (IC50 μM) MV-4-11 3d-Growth): 1 to 10 µM
6 | Cc1noc(C)c1-c1cnc2c(-c3ccc(C(=O)O)cc3)cn([C@H](C)c3ccccn3)c2c1 [P-0510, 4-[6-(3,5-dimethylisoxazol-4-yl)-1-[(1R)-1-(2-pyridyl)ethyl]pyrrolo[3,2-b]pyridin-3-yl]benzoic acid] | – | IC50 (bromodomain): < 10 µM; IC50 (MV-4-11 cells; [1]): < 1 µM
7 | COc1ccc(-c2cnc3c(-c4cnn(C(F)F)c4)cn(CC4CCC(F)(F)CC4)c3c2)cn1 [P-0358, 1-[(4,4-difluorocyclohexyl)methyl]-3-[1-(difluoromethyl)pyrazol-4-yl]-6-(6-methoxy-3-pyridyl)pyrrolo[3,2-b]pyridine] | < 10 µM | IC50 (MV-4-11 cells; [4]): 10 to 200 µM
8 | Cc1noc(C)c1-c1cnc2c(-c3ccc(C4(C(=O)O)CC4)cc3)cn(CC3(C)CCOCC3)c2c1 [P-0777, 1-[4-[6-(3,5-dimethylisoxazol-4-yl)-1-[(4-methyltetrahydropyran-4-yl)methyl]pyrrolo[3,2-b]pyridin-3-yl]phenyl]cyclopropanecarboxylic acid] | < 10 µM | –
9 | [2H]C([2H])([2H])c1noc(C([2H])([2H])[2H])c1-c1cnc2c(-c3cnn(CC(F)(F)F)c3)cn(CC3CCC(F)(F)CC3)c2c1 [P-0615, 4-[1-[(4,4-difluorocyclohexyl)methyl]-3-[1-(2,2,2-trifluoroethyl)pyrazol-4-yl]pyrrolo[3,2-b]pyridin-6-yl]-3,5-bis(trideuteriomethyl)isoxazole] | < 10 µM | –
10 | Cc1ccc(-c2cn([C@H](c3ccccc3)c3ccccn3)c3cc(-c4c(C)noc4C)ccc23)cc1 [P-0790, 3,5-dimethyl-4-[1-[(R)-phenyl(2-pyridyl)methyl]-3-(p-tolyl)indol-6-yl]isoxazole] | < 10 µM | –
11 | COC(=O)c1ccc(-c2cn(C(c3ccccc3)c3ccccc3)c3cc(-c4c(C)noc4C)cnc23)cc1 [P-0617, methyl 4-[1-benzhydryl-6-(3,5-dimethylisoxazol-4-yl)pyrrolo[3,2-b]pyridin-3-yl]benzoate] | < 10 µM | –
12 | CCOC(=O)c1ccc(-c2cn([C@@H](c3ccccc3)c3ccccn3)c3cc(-c4c(C)noc4C)ccc23)cc1 [P-0752, ethyl 4-[6-(3,5-dimethylisoxazol-4-yl)-1-[(S)-phenyl(2-pyridyl)methyl]indol-3-yl]benzoate] | < 10 µM | –
13 | Cc1noc(C)c1-c1cnc2c(-c3ccc(CO)cc3)cn([C@@H](c3ccccc3)c3ccccn3)c2c1 [P-0713, [4-[6-(3,5-dimethylisoxazol-4-yl)-1-[(S)-phenyl(2-pyridyl)methyl]pyrrolo[3,2-b]pyridin-3-yl]phenyl]methanol] | < 10 µM | –
14 | Cc1ccc(-c2cn([C@@H](c3ccccc3)c3ccccn3)c3cc(-c4c(C)noc4C)cnc23)cc1 [P-0714, 3,5-dimethyl-4-[1-[(S)-phenyl(2-pyridyl)methyl]-3-(p-tolyl)pyrrolo[3,2-b]pyridin-6-yl]isoxazole] | < 10 µM | –

Second part, led by results:

Row | IC50 (bromodomain; [2]) | SMILES | further results
15 | < 10 µM | Cc1noc(C)c1-c1cnc2c(-c3ccc(C(=O)O)cc3)cn(CC3CC4(CCC4)C3)c2c1 [P-0603, 4-[6-(3,5-dimethylisoxazol-4-yl)-1-(spiro[3.3]heptan-6-ylmethyl)pyrrolo[3,2-b]pyridin-3-yl]benzoic acid] | IC50 (MV-4-11 cells; [3]): < 1 µM
16 | < 10 µM | Cc1noc(C)c1-c1cnc2c(-c3ccc(C(F)F)cc3)cn(CC3CCC(F)(F)CC3)c2c1 [P-0608, 4-[1-[(4,4-difluorocyclohexyl)methyl]-3-[4-(difluoromethyl)phenyl]pyrrolo[3,2-b]pyridin-6-yl]-3,5-dimethyl-isoxazole] | IC50 (MV-4-11 cells; [3]): < 1 µM
17 | < 10 µM | [2H]c1c([2H])c([2H])c(C([2H])(n2cc(-c3ccc(C(=O)O)cc3)c3ncc(-c4c(C)noc4C)cc32)C([2H])([2H])[2H])c([2H])c1[2H] (stereo not shown) [P-0607, 4-[6-(3,5-dimethylisoxazol-4-yl)-1-[1,2,2,2-tetradeuterio-1-(2,3,4,5,6-pentadeuteriophenyl)ethyl]pyrrolo[3,2-b]pyridin-3-yl]benzoic acid] | IC50 (MV-4-11 cells; [3]): < 1 µM
18 | < 10 µM | Cc1noc(C)c1-c1cnc2c(-c3ccc(C(=O)O)cc3)cn(CC3CCOCC3)c2c1 [P-0769, 4-[6-(3,5-dimethylisoxazol-4-yl)-1-(tetrahydropyran-4-ylmethyl)pyrrolo[3,2-b]pyridin-3-yl]benzoic acid] | –
19 | < 10 µM | Cc1noc(C)c1-c1cnc2c(-c3ccc4c(c3)CCOC4=O)cn(CC3CCC(F)(F)CC3)c2c1 [P-0798, 6-[1-[(4,4-difluorocyclohexyl)methyl]-6-(3,5-dimethylisoxazol-4-yl)pyrrolo[3,2-b]pyridin-3-yl]isochroman-1-one] | –
20 | < 10 µM | Cc1noc(C)c1-c1cnc2c(-c3ccc(C(C)(C)C(=O)O)cc3)cn(CC3(C)CCCCC3)c2c1 [P-0783, 2-[4-[6-(3,5-dimethylisoxazol-4-yl)-1-[(1-methylcyclohexyl)methyl]pyrrolo[3,2-b]pyridin-3-yl]phenyl]-2-methyl propanoic acid] | –
21 | < 10 µM | Cc1ccc(-c2cn(CC3CCOCC3)c3cc(-c4c(C)noc4C)cnc23)cc1 [P-0793, 3,5-dimethyl-4-[3-(p-tolyl)-1-(tetrahydropyran-4-ylmethyl)pyrrolo[3,2-b]pyridin-6-yl]isoxazole] | –
22 | < 10 µM | Cn1cc(-c2cnc3c(-c4ccc(C(=O)O)cc4)cn(CC4CCCCC4)c3c2)cc(Cl)c1=O [P-0764, 4-[6-(5-chloro-1-methyl-6-oxo-3-pyridyl)-1-(cyclohexylmethyl)pyrrolo[3,2-b]pyridin-3-yl]benzoic acid] | –
23 | < 10 µM | Cc1noc(C)c1-c1cnc2c(-c3ccc(C(=O)O)cc3)cn(CC3CCCCO3)c2c1 (stereo not shown) [P-0768, 4-[6-(3,5-dimethylisoxazol-4-yl)-1-(tetrahydrpyran-2-ylmethyl)pyrrolo[3,2-b]pyridin-3-yl]benzoic acid] | –
24 | < 10 µM | Cc1noc(C)c1-c1ccc2c(-c3ccc(C4(C(=O)O)CC4)cc3)cn(CC3CCC(F)(F)CC3)c2c1 [P-0748, 1-[4-[1-[(4,4-difluorocyclohexyl)methyl]-6-(3,5-dimethylisoxazol-4-yl)indol-3-yl]phenyl]cyclopropanecarboxylic acid] | –
25 | < 10 µM | Cc1ccc(-c2cn(CC3(C)CCCCC3)c3cc(-c4c(C)noc4C)cnc23)cc1 [P-0792, 3,5-dimethyl-4-[1-[(1-methylcyclohexyl)methyl]-3-(p-tolyl)pyrrolo[3,2-b]pyridin-6-yl]isoxazole] | –
26 | < 10 µM | Cc1noc(C)c1-c1cnc2c(-c3ccc(P(=O)(O)O)cc3)cn(CC3CCCCC3)c2c1 [P-0701, [4-[1-(cyclohexylmethyl)-6-(3,5-dimethylisoxazol-4-yl)pyrrolo[3,2-b]pyridin-3-yl]phenyl]phosphonic acid] | –
27 | < 10 µM | Cc1ccc(-c2cn([C@H](c3ccccn3)C3CCCC3)c3cc(-c4c(C)noc4C)cnc23)cc1 [P-0822, 4-[1-[(S)-cyclopentyl(2-pyridyl)methyl]-3-(p-tolyl)pyrrolo[3,2-b]pyridin-6-yl]-3,5-dimethyl-isoxazole] | –
